Reference: patent publication US7998965B2, “Glutamate aggrecanase inhibitors” (Wyeth LLC, priority 2005, dated 2011)

How the values were obtained:
[1] = biological target: T1, purified recombinant human Aggrecanase-1 (rAgg1) (Homo sapiens, UniProt O75173); assay: In vitro fluorescence screen for Aggrecanase-1 inhibitors; assay type: biochemical; details: Table 1; for Ki: enzyme not given, column follows Agg1 IC50, read-out: Ki; for IC50: read-out: Agg1 IC50
T1 sequence (O75173 213-837): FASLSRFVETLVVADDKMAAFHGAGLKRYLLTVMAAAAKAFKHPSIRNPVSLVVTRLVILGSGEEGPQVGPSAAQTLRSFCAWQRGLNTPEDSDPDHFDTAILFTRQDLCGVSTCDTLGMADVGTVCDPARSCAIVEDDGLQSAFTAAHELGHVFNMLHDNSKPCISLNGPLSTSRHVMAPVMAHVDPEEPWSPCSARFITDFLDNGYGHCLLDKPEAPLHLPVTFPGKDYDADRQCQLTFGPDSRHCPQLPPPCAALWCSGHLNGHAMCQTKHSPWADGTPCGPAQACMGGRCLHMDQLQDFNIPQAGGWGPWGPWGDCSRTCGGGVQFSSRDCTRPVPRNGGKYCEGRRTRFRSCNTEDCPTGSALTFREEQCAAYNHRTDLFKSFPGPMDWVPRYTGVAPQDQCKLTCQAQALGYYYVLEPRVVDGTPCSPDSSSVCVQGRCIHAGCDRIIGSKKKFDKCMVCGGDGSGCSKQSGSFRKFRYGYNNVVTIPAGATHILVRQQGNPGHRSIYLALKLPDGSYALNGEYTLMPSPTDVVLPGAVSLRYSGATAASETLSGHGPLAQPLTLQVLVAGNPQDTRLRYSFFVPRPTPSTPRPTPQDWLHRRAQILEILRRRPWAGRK

[2] = biological target: T2, purified recombinant human Aggrecanase-2 (Ag2t-Phe628-Strep) (Homo sapiens, UniProt Q9UNA0); assay: In vitro fluorescence screen for Aggrecanase-2 inhibitors; assay type: biochemical; details: Table 1; read-out: Agg 2 IC50
T2 construct: the form used is denoted as Ag2t-Phe628-Strep (MW=41,737)
T2 sequence (Q9UNA0 262-628): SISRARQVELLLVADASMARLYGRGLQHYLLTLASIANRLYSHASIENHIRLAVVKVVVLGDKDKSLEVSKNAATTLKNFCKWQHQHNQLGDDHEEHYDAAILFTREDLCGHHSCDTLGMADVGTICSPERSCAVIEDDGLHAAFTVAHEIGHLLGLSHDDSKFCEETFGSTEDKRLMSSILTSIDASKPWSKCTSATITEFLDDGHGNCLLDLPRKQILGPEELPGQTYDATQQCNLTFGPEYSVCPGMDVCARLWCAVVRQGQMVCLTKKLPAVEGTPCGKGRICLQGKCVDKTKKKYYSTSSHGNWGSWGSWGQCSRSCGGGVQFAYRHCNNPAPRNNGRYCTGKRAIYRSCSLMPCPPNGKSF

[3] = biological target: T3, recombinant human catalytic domain of MMP-13 (Homo sapiens, UniProt P45452); assay: In vitro fluorescence assay of MMP-13 activity; assay type: biochemical; details: Table 1; for IC50: unit inferred
T3 construct: catalytic domain of MMP-13 (165 amino acids, residues 104-268, 19 kDa)

[4] = biological target: T4, recombinant human catalytic domain of MMP-14 (Homo sapiens, UniProt P50281); assay: In vitro fluorescence assay of MMP-14 activity; assay type: biochemical; details: Table 1; unit inferred
T4 construct: 177 amino acids corresponding to Tyr89-Gly265 of mature human enzyme; purchased Chemicon International, Inc. CC1041

[5] = system: bovine articular cartilage treated with Interleukin 1 alpha (IL-1α); assay: Bovine articular cartilage explant cultures: inhibition of degradation of proteoglycan; assay type: cell-based; details: inhibitory effect expressed as percentage, concentration not printed
How it was run: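 Bovine metacarpal cartilage discs (6 mm), equilibrated in serum-free DMEM-based medium, were treated with 5 ng/ml IL-1 plus compound (working solutions 0.1-10 μg/ml), with medium collected and replaced on days 1, 2 and 3. Released proteoglycan was measured by DMMB absorbance at 520 nm against chondroitin sulphate standards, expressed as μg per mg cartilage, and inhibition given as percentage.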

MMP-1 = biological target: T5, MMP-1 (Homo sapiens, UniProt P03956); assay: MMP-1 of Table 1; assay type: biochemical; details: for IC50: unit inferred; for MMP-1: unit not given
T5 sequence (P03956 100-469): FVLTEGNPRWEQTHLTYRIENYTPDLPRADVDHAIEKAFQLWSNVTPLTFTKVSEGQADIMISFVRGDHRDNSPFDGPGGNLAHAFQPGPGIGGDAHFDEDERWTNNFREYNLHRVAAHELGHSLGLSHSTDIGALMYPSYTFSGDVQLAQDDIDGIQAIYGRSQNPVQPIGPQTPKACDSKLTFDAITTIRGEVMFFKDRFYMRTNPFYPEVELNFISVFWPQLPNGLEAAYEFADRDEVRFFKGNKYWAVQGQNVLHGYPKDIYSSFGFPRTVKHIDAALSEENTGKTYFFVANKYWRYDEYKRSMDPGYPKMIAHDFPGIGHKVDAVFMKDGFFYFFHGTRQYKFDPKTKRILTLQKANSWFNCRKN

recombinant human MMP-2 = biological target: T6, recombinant human MMP-2 (Homo sapiens, UniProt P08253); assay: In vitro fluorescence assay of MMP-2 activity
T6 sequence (P08253 110-660): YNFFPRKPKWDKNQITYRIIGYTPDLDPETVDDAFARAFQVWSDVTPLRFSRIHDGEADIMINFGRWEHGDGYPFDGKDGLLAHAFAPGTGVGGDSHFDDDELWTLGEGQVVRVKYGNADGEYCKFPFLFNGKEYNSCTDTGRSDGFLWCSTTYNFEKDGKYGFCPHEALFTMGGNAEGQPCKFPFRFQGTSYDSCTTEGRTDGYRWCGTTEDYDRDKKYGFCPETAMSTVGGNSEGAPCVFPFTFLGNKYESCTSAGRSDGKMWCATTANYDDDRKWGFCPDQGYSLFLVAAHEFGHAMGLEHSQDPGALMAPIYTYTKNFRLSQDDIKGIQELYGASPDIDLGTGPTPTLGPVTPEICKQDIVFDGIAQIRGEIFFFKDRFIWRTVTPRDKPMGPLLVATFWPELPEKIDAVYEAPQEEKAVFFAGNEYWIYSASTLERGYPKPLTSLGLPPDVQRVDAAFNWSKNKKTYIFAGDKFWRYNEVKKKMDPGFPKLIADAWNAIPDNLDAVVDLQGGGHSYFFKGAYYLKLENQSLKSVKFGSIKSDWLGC
Experimental: A continuous assay was used in which the substrate is a synthetic peptide containing a fluorescent group (7-methoxycoumarin; Mca), which is quenched by energy transfer to a 2,4-dinitrophenyl group. […] The source of enzyme in the assay was the recombinant human MMP-2 (66 kDa; Oncogene Research Products (catalog number PF023 from Calbiochem)). The substrate used was the peptide Mca-PQGL-(3-[2,4-dinitrophenyl]-L-2,3-diaminopropionyl)-AR-OH. The assay buffer consisted of 50 mM Hepes (pH 7.4), 100 mM NaCl, 5 mM CaCl2, and 0.005% Brij-35. […] The plates were then incubated at 30° C. for 15 minutes. The enzymatic reactions were initiated by adding the substrate to a final concentration of 20 μM, and mixing 10 times with a pipette. The final DMSO concentration in the assay was 6.0%.
Plots of the inhibitor concentration vs. the percent inhibition were fit to the following equation: y=(a−d)/[^1+(x/c)^b]+d, a general sigmoidal curve with Hill slope, a to d. x is the inhibitor concentration under test. y is the percent inhibition. a is the limiting response as x approaches zero. As x increases without bound, y tends toward its limit d. c is the inflection point (IC50) for the curve. That is, y is halfway between the lower and upper asymptotes when x=c. b is the slope factor or Hill coefficient.

[6] = Table 1, first of two columns headed bovine
[7] = Table 1, second of two columns headed bovine

SMILES | Ki [1] [µM] | IC50 [1] [µM] | IC50 [2] [µM] | IC50 [3] [µM] | IC50 [4] [µM] | bovine [5, 6] [%] | bovine [5, 7] [%] | IC50 (MMP-1) [µM] | IC50 (recombinant human MMP-2) [µM] | MMP-1 (MMP-1) | MMP-13 ([3]; unit not given)
O=C(O)CC[C@H](NC(=O)c1ccc(-c2ccccc2)cc1)C(=O)NCc1cccc(-c2cccs2)c1 [Example 10N, N^2-(1,1′-biphenyl-4-ylcarbonyl)-N^1-(3-thien-2-ylbenzyl)-L-α-glutamine] | 0.028 | 0.019 | 0.97 | > 50 | > 200 | 65 | 24 | > 200 | 7.6 | – | –
C=Cc1cccc(CNC(=O)[C@H](CCC(=O)O)NC(=O)c2ccc(-c3ccccc3)cc2)c1 [Example 10M, N^2-(1,1′-biphenyl-4-ylcarbonyl)-N^1-(3-vinylbenzyl)-L-α-glutamine] | 0.054 | 0.043 | 1.1 | ~20 | > 200 | 67 | 35 | > 50 | > 20 | – | –
COc1ccc(CCNC(=O)[C@H](CCC(=O)O)NC(=O)c2ccc(-c3ccccc3)cc2)cc1OC [Example 8L, N^2-(1,1′-biphenyl-4-ylcarbonyl)-N^1-[2-(3,4-dimethoxyphenyl)ethyl]-L-α-glutamine] | – | 0.055 | 0.189 | ~50 | 21.5 | 87 | 79 | > 100 | 10.5 | – | –
CCOc1cccc(-c2ccc(C(=O)N[C@@H](CCC(=O)O)C(=O)NCc3ccccc3)cc2)c1 [Example 13D, N^1-benzyl-N^2-[(3′-ethoxy-1,1′-biphenyl-4-yl)carbonyl]-L-α-glutamine] | – | 0.75 | ~26 | > 200 | > 100 | 51 | 25 | > 100 | > 200 | – | –
O=C(O)CC[C@H](NC(=O)c1ccc(-c2ccccc2)cc1)C(=O)NCc1ccc(F)c(C(F)(F)F)c1 [Example 8NNN, N^2-(1,1′-biphenyl-4-ylcarbonyl)-N^1-[4-fluoro-3-(trifluoromethyl)benzyl]-L-α-glutamine] | 0.219 | 0.1 | 1.75 | 14 | > 50 | 60 | 0 | > 50 | > 10 | – | –
O=C(O)CC[C@H](NC(=O)c1ccc(-c2ccco2)cc1)C(=O)NCc1ccccc1 [Example 12A, N^1-benzyl-N^2-[4-(2-furyl)benzoyl]-L-α-glutamine] | – | 0.7 | ~5 | ~6 | ~2 | 41 | 18 | ~2 | ~2 | – | –
O=C(O)CC[C@H](NC(=O)c1ccc(-c2cccs2)cc1)C(=O)NCc1ccccc1 [Example 11, N^1-benzyl-N^2-(4-thien-2-ylbenzoyl)-L-α-glutamine] | – | 0.11 | ~0.8 | ~5 | ~2 | 78 | 52 | ~2 | ~1 | – | –
COc1cc(CNC(=O)[C@H](CCC(=O)O)NC(=O)c2ccc(-c3ccccc3)cc2)cc(OC)c1 [Example 8CC, N^2-(1,1′-biphenyl-4-ylcarbonyl)-N^1-(3,5-dimethoxybenzyl)-L-α-glutamine] | 0.019 | 0.022 | 0.121 | ~22 | ~25 | 94 | 71 | – | 5.65 | no inh | –
Cc1ccc(CNC(=O)[C@H](CCC(=O)O)NC(=O)c2ccc(-c3ccccc3)cc2)cc1C [Example 8DD, N^2-(1,1′-biphenyl-4-ylcarbonyl)-N^1-(3,4-dimethylbenzyl)-L-α-glutamine] | – | 0.094 | 0.93 | ~22 | 16.2 | 89 | 50 | – | 4.58 | no inh | –
O=C(O)CC[C@H](NC(=O)c1ccc(-c2ccccc2)cc1)C(=O)NC1CCCCCCC1 [Example 8E, N^2-(1,1′-biphenyl-4-ylcarbonyl)-N^1-cyclooctyl-L-α-glutamine] | – | 0.09 | 0.746 | ~25 | ~25 | 79 | 34 | > 200 | 3.7 | – | –
O=C(O)CC[C@H](NC(=O)c1ccc(-c2ccccc2)cc1)C(=O)NCc1cccc(I)c1 [Example 8JJ, N^2-(1,1′-biphenyl-4-ylcarbonyl)-N^1-(3-iodobenzyl)-L-α-glutamine] | 0.033 | 0.045 | 1.1 | 17 | > 200 | 70 | 17 | > 200 | 27 | – | –
COc1ccc(CCNC(=O)[C@H](CCC(=O)O)NC(=O)c2ccc(-c3ccccc3)cc2)cc1 [Example 8M, N^2-(1,1′-biphenyl-4-ylcarbonyl)-N^1-[2-(4-methoxyphenyl)ethyl]-L-α-glutamine] | – | 0.12 | 0.856 | ~50 | 13 | 85 | 17 | > 100 | 8 | – | –
CSc1ccc(CNC(=O)[C@H](CCC(=O)O)NC(=O)c2ccc(-c3ccccc3)cc2)cc1 [Example 8V, N^2-(1,1′-biphenyl-4-ylcarbonyl)-N^1-[4-(methylthio)benzyl]-L-α-glutamine] | – | 0.16 | 1.1 | ~67 | ~30 | 73 | 45 | > 100 | 3.43 | – | –
CN(C)c1ccc(CNC(=O)[C@H](CCC(=O)O)NC(=O)c2ccc(-c3ccccc3)cc2)cc1 [Example 8ZZZ, N^2-(biphenyl-4-ylcarbonyl)-N^1-[4-(dimethylamino)benzyl]-L-α-glutamine] | – | 0.1 | 1.6 | – | > 200 | 72 | 34 | > 50 | 13 | – | no inh
